The text below walks through data of patent US20240358678A1, “METHODS AND COMPOSITIONS FOR ENHANCING CHEMOTHERAPEUTIC DRUG UPTAKE INTO BRAIN TUMORS” (Brown University, priority 2023, published 2024).

“Also recorded” adds a separate entry of the source.

Data set [1] deals with HCMEC/D3 cells. As to the kind of experiment: Immunofluorescence staining of HCMEC/D3 endothelial cells. The class given is cell-based, human. The conditions noted are these: BIA 1 μM. As for the experimental part:
Immunofluorescent (IF) staining: For IF staining of HCMEC/D3 endothelial cells, we coated 8-well Nunc™ Lab-Tek™ chamber slides (Thermo Fisher Scientific) with 1× Type 1 rat-tail collagen (Corning) following provider's instructions. Then, we plated at a density of 50,000 cells/well and left in culture for 72 hours to allow for barrier formation. Next, we treated with BIA or control for 24-48 hours. Cells were then fixed with 10% formalin (Thermo Fisher Scientific) for 10 minutes, permeabilized for 30 minutes using 0.01% Triton X-100 and blocked with 0.1% normal donkey serum (Calbiochem) for 1 hour in 0.025% Tween-20 (Thermo Fisher Scientific) in Phosphate-Buffered Saline (PBS) (Gibco). Then, primary antibodies were added: mouse anti-CDH5 (VE-cadherin, BioLegend) 1:100, rabbit antiClaudin-5 (Thermo Fisher Scientific) 1:100, and mouse anti-ZO-1 (Invitrogen) 1:100, and incubated overnight in the cold. Next day, secondary antibodies were used for 2 hours at room temperature: Alexa Fluor 594 anti-mouse (1:500), Alexa Fluor 594 anti-rabbit (1:500), and Alexa Fluor 647 anti-mouse (1:500), all of these Thermo Fisher Scientific. For cytoskeleton staining Phalloidin-iFluor 488 (Abcam) 1:1000 for 30 minutes and nuclei staining using Hoechst 33342 (Thermo Fisher Scientific) 1:1000 for 5 minutes, at room temperature.

Data set [2] has as its system human brain microvascular endothelial cell monolayers. As to the kind of experiment: RNA sequencing of HBMEC monolayers (Example 3). The class given is cell-based. The conditions noted are these: BiA 1 μM, 24 hours. As for the experimental part:
RNA Sequencing (RNAseq): RNA sequencing was performed by the Dana Faber molecular biology core according to their standard methods. RNA was prepared from human brain microvascular endothelial cell monolayers after 24 hours treatment with BiA. EXAMPLE 1 EFFECT OF INDIRUBIN ON THE BLOOD-TUMOR BARRIER (BTB)
In order to assess changes in gene expression profiles induced by alterations to barrier functions induced by indirubin, RNA sequencing was performed RNA prepared from human brain microvascular endothelial cell monolayers after 24 hours treatment with BiA. HBMEC monolayers were treated with BiA (1 μM) for 24 hours and gene expression profiles compared with untreated controls.

Data set [3] relates to G30 tumors. Nature of the data set: DCE-MRI analysis of blood flow within a murine glioblastoma (k-trans). The class given is in vivo, mouse. The conditions noted are these: 24 hours after BiA 10 mg/kg IP vs pretreatment. As for the experimental part:
Magnetic Resonance Imaging (MRI): MRI was performed at the BWH Imaging Core on a 7T Bruker MRI apparatus. G30 tumors were implanted (50,000 cells per mouse) intracranially into the striatum using a stereotactic frame. After three weeks of tumor growth, MRI images were collected according to BWH Imaging Core protocols using Gadolinium contrast enhancement. After the first image was collected, BiA was administered IP at 10 mg/kg), and imaging were performed again.
The present study investigated whether the indirubin derivative, BiA (see FIG. 1A and FIG. 1B), can disrupt the permeability of the BTB. Blood flow within a murine glioblastoma was assessed using dynamic contrast-enhanced magnetic resonance imaging (DCE-MRI) analysis and as measured by k^trans.
K^trans is calculated by measuring the accumulation of gadolinium-based contrast agent in the extravascular-extracellular space. Interpretation of k^trans varied according to permeability and blood flow. In situations where permeability is very low (near-intact blood brain barrier), then k^trans is a useful measure of permeability, whereas in situations where permeability is very high (disrupted blood brain barrier), then k^trans will reflect perfusion.

Data set [4] deals with HCMEC/D3 cells. As to the kind of experiment: Cell titer Glo viability assay on HCMEC/D3. It counts as cell-based, human. Conditions: ~1-5 μM BIA, 72 hours. As for the experimental part:
Cell viability assay: Cells were plated at a density of 1500 cells/well in black-well clear bottom 96-well plates and left growing in culture conditions overnight. Next day, cells were treated with titrating doses of the indicated compounds. […] For BIA and cisplatin combinatorial studies, cells were incubated with BIA and cisplatin, and corresponding controls, for 5 days. Next, we used the Cell-Titer Glo 3D (Promega) following provider's guidelines and quantified for luminescence signal using a Molecular Devices SpectraMax M2 plate reader. Conditions were repeated in triplicates.
For orientation: Cellular ATP, detected with luciferase, serves as a proxy for viable cell number.

The subject of data set [5] is HCMEC/D3 cells. Nature of the data set: Bulk RNA-sequencing of HCMEC/D3 cells treated with BIA. The class given is cell-based, human. As for the experimental part:
RNA-sequencing of HCMEC/D3 cells treated with BIA: For RNA-sequencing, HCMEC/D3 cells were plated at a density of 500,000 cells/well in a 6-well plate. Left to grow for 24 hours, and then treated with 1 μM of BIA or DMSO (control). After 24 hours, cells were collected and processed for RNA extraction using the column-based RNeasy kit (QIAGEN), following provider's instructions. RNA quality and quantity were quantified using a Nanodrop™ One (Invitrogen). At least 500 ng of RNA was submitted for bulk RNA-sequencing at GeneWiz (Azenta Life Sciences). QC was accessed, and library was prepared with Poly(A) selection. Sequencing was performed using Illumina HiSeq.
Differential gene expression on the RNA-seq raw data (FASTQ files) was analyzed by Azenta Life Sciences using DESeq2 aligning to human transcriptome. Data QC was verified. Log2 fold change (Log 2FC) was calculated by Log2 (BIA group mean normalized counts/Control group mean normalized counts). The Wald test p-value and Benjamini-Hochberg adjusted p-value were calculated. A heatmap and volcano plot of top adjusted p-value differentially expressed genes (DEGs) in ensemble ID annotation bi-clustering to treatment conditions were generated. Control and BIA groups consisted of three-independent samples.

In data set [6] the test system is HCMEC/D3 cells. Nature of the data set: Trans-endothelial electrical resistance (TEER) of HCMEC/D3 monolayers. It counts as cell-based, human. The method, then: Trans-endothelial electrical resistance: HCMEC/D3 or HBMEC cells were plated in 8W10E+ PET 8-well arrays (Applied Biophysics) at a density of 100,000 cells/well in 500 μl. These arrays were placed in a pre-stabilized ECIS Z-Theta instrument (Applied Biophysics). Using the ECIS Z-Theta software (Applied Biophysics), measurements were set to 4000 and 64000 Hz every 30 minutes. […] Cells would then be treated with BIA and left to grow up to 5 days, with frequent drug-containing media re-addition for maintenance of the culture. Resistance (W) and capacitance (nF) were recorded and plotted.

On to `CC(=O)ON=C1C(=C2C(=O)Nc3cc(Br)ccc32)Nc2ccccc21` [BIA, 6-bromoindirubin acetoxime], for which the “CDH5 immunofluorescence at the membrane periphery” value in data set [1] (24-48 hrs) is listed as “marked decrease”. Besides, in data set [1] (48 hours), the Claudin-5 immunofluorescence result was “no difference” and the ZO-1 immunofluorescence entry is reported as “marked reduction”. Moreover, the “gene expression pathways (TGF-β, Wnt signaling, angiogenesis/BTB)” value in data set [2] is recorded as “alteration to major pathways”. In addition, the “k-trans values in murine glioblastoma” value in data set [3] is listed as “significantly increased; also recorded: increased perfusion”. Besides, the reduction of viability result in data set [4] is reported as “up to 30%”. In data set [5], the ERG expression entry is “downregulation of ERG”; the “expression of WNT4, WNT10A and WNT11 ligands” value was “increase of expression”; the “expression of WNT7B and WNT ligand receptors FZD4 and FZD7” value was “decrease”. In data set [5] (BIA 1 μM, 24 hrs), the “CDH5 gene expression change upon BIA treatment” value was −3.06 fold, log 2; the PCDH12 expression result is “increased its expression”; the “expression of PHGDH, AXIN2, TCF7, VLDLR and VEGFA” value is listed as “promoted expression”; the “expression of angiogenesis-related genes MMRN2, CD93, ACVRL1, KDR, SMAD6 and S1PR3” value is recorded as “downregulated”. For the same compound, in data set [5] (BIA 1 μM, 24 hrs), the “significantly downregulated differentially expressed genes” value was 652 genes and the “significantly upregulated differentially expressed genes” value is given as 862 genes. Further, the “BTB-genes modulated by BIA” value in data set [5] (of the 12 BTB-genes of the in-silico screening) is recorded as 8 of the 12. In addition, the “barrier establishment (TEER), BIA added 24 hours after plating” value in data set [6] is recorded as “prevented barrier establishment”. The “barrier formation (TEER), BIA added to confluent monolayers” value in data set [6] (BIA added at monolayer confluence (~110 hrs)) was “marked decreased of barrier formation”.
